Assay results taken from EPA's ToxRefDB 2.

Legend:
rat [1] = settings: Sub-acute repeat dose toxicity, sprague dawley, Oral, Gavage/Intubation, dose end: 22 day, group: systemic
rat [2] = settings: Prenatal developmental toxicity study, Oral, Gavage/Intubation, dose end: 18 GD
rat [3] = settings: Subchronic oral toxicity in rodents, Gavage/Intubation, dose end: 64 day, group: systemic, systemic / in life observation / body weight / body weight + systemic / in life observation / clinical signs / motor activity + systemic / …
dog = settings: Sub-acute repeat dose toxicity; beagle; Inhalation; Whole-Body; dose end: 14 day; group: systemic; systemic / in life observation / food consumption / food consumption + systemic / pathology microscopic / nose / [other] + systemic / …
rat [4] = settings: Sub-acute repeat dose toxicity; Inhalation; Whole-Body; dose end: 14 day; group: systemic; systemic / hematology / blood clotting / blood clotting - activated partial thromboplastin time + systemic / in life observation / body …
rabbit [5] = settings: Prenatal developmental toxicity study; new zealand white; Oral; Gavage/Intubation; dose end: 19 GD; group: maternal; systemic / in life observation / body weight / body weight gain + systemic / in life observation / clinical signs / reduced activity + …
rat [6] = settings: Prenatal developmental toxicity study, sprague dawley, Oral, Gavage/Intubation, dose end: 18 GD
primate [7] = settings: Sub-acute repeat dose toxicity, Oral, Gavage/Intubation, dose end: 9 day, group: systemic
primate [8] = settings: Subchronic oral toxicity in nonrodent, Gavage/Intubation, dose end: 48 day, group: systemic
rat [9] = settings: Sub-acute repeat dose toxicity, sprague dawley, Oral, Gavage/Intubation, dose end: 12 day, group: systemic
primate [10] = settings: Subchronic oral toxicity in nonrodent, Gavage/Intubation, dose end: 42 day, group: systemic, systemic / in life observation / body weight / body weight + systemic / in life observation / clinical signs / emesis + systemic / in life …
rat [11] = settings: Fertility (Segment I), sprague dawley, Oral, Gavage/Intubation, dose end: 1 generation, group: parental
rat [12] = settings: Fertility (Segment I), sprague dawley, Oral, Gavage/Intubation, dose end: 1 generation, group: parental; remark: listed apart in the source
rabbit [13] = settings: Sub-acute repeat dose toxicity, new zealand white, Oral, Gavage/Intubation, dose end: 13 day
rabbit [14] = settings: Sub-acute repeat dose toxicity, Oral, Gavage/Intubation, dose end: 5 day, group: systemic
rat [15] = settings: Subchronic oral toxicity in rodents, sprague dawley, Gavage/Intubation, dose end: 42 day, group: systemic
rat [16] = settings: Sub-acute repeat dose toxicity, sprague dawley, Oral, Gavage/Intubation, dose end: 14 day, group: systemic
primate [17] = settings: Sub-acute repeat dose toxicity; Oral; Gavage/Intubation; dose end: 5 day; group: systemic; systemic / in life observation / clinical signs / emesis + systemic / in life observation / food consumption / food consumption
rabbit [18] = settings: Prenatal developmental toxicity study, himalayan, Oral, Gavage/Intubation, dose end: 18 GD, group: maternal
rat [19] = settings: Prenatal developmental toxicity study, sprague dawley, Oral, Gavage/Intubation, dose end: 17 GD
rat [20] = settings: Sub-acute repeat dose toxicity, sprague dawley, Oral, Gavage/Intubation, dose end: 4 week, group: systemic
[21] = systemic / in life observation / body weight / body weight + systemic / in life observation / body weight / body weight gain + systemic / in…
[22] = systemic / in life observation / body weight / body weight gain
[23] = group: developmental, developmental / developmental malformation / bone / fused + developmental / developmental malformation / bone / delayed ossification + …
[24] = group: maternal, systemic / in life observation / body weight / body weight + systemic / in life observation / body weight / body weight gain + systemic / in…
[25] = group: maternal, systemic / in life observation / body weight / body weight gain + systemic / in life observation / food consumption / food consumption
[26] = group: developmental, developmental / developmental malformation / eye / anophthalmia + developmental / developmental malformation / eye / microphthalmia + …
[27] = systemic / hematology / lymphocyte / lymphocyte
[28] = systemic / in life observation / clinical signs / emesis + systemic / in life observation / clinical signs / salivation + systemic / …
[29] = systemic / in life observation / clinical signs / emesis + systemic / pathology microscopic / peritoneum / atrophy
[30] = systemic / in life observation / clinical signs / emesis + systemic / pathology microscopic / peritoneum / atrophy + systemic / in life …
[31] = systemic / in life observation / body weight / body weight gain + systemic / in life observation / clinical signs / respiration (rales) + …
[32] = systemic / in life observation / body weight / body weight gain + systemic / in life observation / clinical signs / salivation + systemic / …
[33] = systemic / in life observation / body weight / body weight + systemic / in life observation / clinical signs / altered breathing rate + …
[34] = systemic / in life observation / clinical signs / abnormal respiratory sounds + systemic / in life observation / clinical signs / drooping …
[35] = group: maternal, reproductive / offspring survival early / litter viability other / litter viability
[36] = group: systemic, systemic / in life observation / body weight / body weight + systemic / in life observation / clinical signs / inappetence
[37] = group: systemic, systemic / in life observation / body weight / body weight + systemic / in life observation / clinical signs / inappetence + systemic / in …
[38] = systemic / in life observation / clinical signs / abnormal feces
[39] = systemic / hematology / erythrocyte (rbc) count differential / erythrocyte (rbc) + systemic / hematology / hemoglobin (hgb) / hemoglobin (…
[40] = systemic / in life observation / food consumption / food consumption
[41] = systemic / in life observation / food consumption / food consumption + systemic / pathology gross / intestine large / dilatation + systemic…
[42] = systemic / in life observation / body weight / body weight gain + systemic / in life observation / food consumption / food consumption
[43] = group: developmental, developmental / developmental malformation / general / crown-rump length + systemic / in life observation / body weight / fetal weight
[44] = group: maternal, reproductive / reproductive performance / resorptions / resorptions + systemic / in life observation / body weight / body weight + systemic…
[45] = systemic / hematology / mean corpuscular (cell) volume (mcv) / mean corpuscular (cell) volume (mcv) + systemic / pathology microscopic / …

In the case of `FC(F)(F)c1ccc2c(c1)[C@H]1CNC[C@@H]2C1`, the LOAEL (rat [1]; [21]) was > 7 mg/kg/day, the NOAEL (rat [1]; [21]) was ≥ 7 mg/kg/day and the LEL (rat [1]; [22]) was 1 mg/kg/day. The NEL (rat [1]; [22]) was < 1 mg/kg/day, the LEL (rat [2]; group: developmental, developmental / developmental malformation / bone / delayed ossification + developmental / developmental malformation / bone / fused + …) was 3 mg/kg/day and the LOAEL (rat [2]; [23]) was > 7 mg/kg/day. The NOAEL (rat [2]; [23]) was ≥ 7 mg/kg/day, the LOAEL (rat [2]; [24]) was > 7 mg/kg/day and the NOAEL (rat [2]; [24]) was ≥ 7 mg/kg/day. The LEL (rat [2]; [25]) was 1 mg/kg/day, the NEL (rat [2]; [25]) was < 1 mg/kg/day and the LEL (rat [3]) was 3 mg/kg/day. For the same compound, the LOAEL (rat [3]) was > 3 mg/kg/day, the NEL (rat [3]) was 1 mg/kg/day and the NOAEL (rat [3]) was ≥ 3 mg/kg/day.

For `CN(C[C@@H](CC[N+]12CCC(C3CCCCC3)(CC1)CC2)c1ccc(Cl)c(Cl)c1)C(=O)c1cc(C(F)(F)F)cc(C(F)(F)F)c1.CS(=O)(=O)[O-]`, the LEL (dog) was 2 mg/kg/day, the LOAEL (dog) was > 2 mg/kg/day and the NEL (dog) was < 2 mg/kg/day. The NOAEL (dog) was ≥ 2 mg/kg/day, the LEL (rat [4]) was 2 mg/kg/day and the LOAEL (rat [4]) was > 2 mg/kg/day. The NEL (rat [4]) was < 2 mg/kg/day and the NOAEL (rat [4]) was ≥ 2 mg/kg/day.

In the case of `C[C@@H](Oc1ccc(CNC(=O)c2cccnc2Oc2ccc3c(c2)OCO3)c(F)c1)C(=O)O`, the LEL (rabbit [5]) was 200 mg/kg/day, the LOAEL (rabbit [5]) was > 200 mg/kg/day and the NEL (rabbit [5]) was 60 mg/kg/day. For the same compound, the NOAEL (rabbit [5]) was ≥ 200 mg/kg/day, the LEL (rat [6]; [26]) was 400 mg/kg/day and the LOAEL (rat [6]; [26]) was > 1000 mg/kg/day. The NOAEL (rat [6]; [26]) was ≥ 1000 mg/kg/day, the LOAEL (rat [6]; [24]) was > 1000 mg/kg/day and the NEL (rat [6]; [24]) was 120 mg/kg/day. For the same compound, the NOAEL (rat [6]; [24]) was ≥ 1000 mg/kg/day, the LEL (rat [6]; group: maternal, systemic / in life observation / clinical signs / salivation + systemic / in life observation / food consumption / food consumption + …) was 400 mg/kg/day and the LEL (primate [7]; [27]) was 100 mg/kg/day. For the same compound, the NEL (primate [7]; [27]) was < 100 mg/kg/day, the LOAEL (primate [7]; [28]) was > 1000 mg/kg/day and the NOAEL (primate [7]; [28]) was ≥ 1000 mg/kg/day. The LEL (primate [8]; [29]) was 5 mg/kg/day, the NEL (primate [8]; [29]) was < 5 mg/kg/day and the LOAEL (primate [8]; [30]) was > 30 mg/kg/day. The NOAEL (primate [8]; [30]) was ≥ 30 mg/kg/day, the LOAEL (rat [9]; [31]) was > 1000 mg/kg/day and the NOAEL (rat [9]; [31]) was ≥ 1000 mg/kg/day. For the same compound, the LEL (rat [9]; [32]) was 400 mg/kg/day, the NEL (rat [9]; [32]) was < 400 mg/kg/day and the LEL (primate [10]) was 200 mg/kg/day. The LOAEL (primate [10]) was > 1000 mg/kg/day, the NEL (primate [10]) was 30 mg/kg/day and the NOAEL (primate [10]) was ≥ 1000 mg/kg/day. The LOAEL (rat [11]; [33]) was > 1000 mg/kg/day, the NEL (rat [11]; [33]) was 50 mg/kg/day and the NOAEL (rat [11]; [33]) was ≥ 1000 mg/kg/day. The LEL (rat [11]; systemic / in life observation / body weight / body weight + systemic / in life observation / clinical signs / drooping eyelids (ptosis) + …) was 400 mg/kg/day, the LOAEL (rat [12]; [34]) was > 1000 mg/kg/day and the NEL (rat [12]; [34]) was 50 mg/kg/day. The NOAEL (rat [12]; [34]) was ≥ 1000 mg/kg/day, the LEL (rat [12]; systemic / in life observation / clinical signs / reduced activity + systemic / in life observation / clinical signs / salivation) was 400 mg/kg/day and the LEL (rabbit [13]; [35]) was 600 mg/kg/day. For the same compound, the LOAEL (rabbit [13]; [35]) was > 600 mg/kg/day, the NEL (rabbit [13]; [35]) was 400 mg/kg/day and the NOAEL (rabbit [13]; [35]) was ≥ 600 mg/kg/day. For the same compound, the LEL (rabbit [13]; [36]) was 120 mg/kg/day, the NEL (rabbit [13]; [36]) was < 120 mg/kg/day and the LOAEL (rabbit [13]; [37]) was > 600 mg/kg/day. The NOAEL (rabbit [13]; [37]) was ≥ 600 mg/kg/day, the LOAEL (rabbit [14]; [21]) was > 750 mg/kg/day and the NOAEL (rabbit [14]; [21]) was ≥ 750 mg/kg/day. The LEL (rabbit [14]; [38]) was 120 mg/kg/day, the NEL (rabbit [14]; [38]) was < 120 mg/kg/day and the LOAEL (rat [15]; [39]) was > 2000 mg/kg/day. The NOAEL (rat [15]; [39]) was ≥ 2000 mg/kg/day, the NEL (rat [15]; systemic / hematology / neutrophils / neutrophils + systemic / in life observation / body weight / body weight + systemic / in life …) was 10 mg/kg/day and the LEL (rat [15]; systemic / pathology microscopic / mesentery / infiltration cellular) was 50 mg/kg/day. The LEL (rat [16]; [40]) was 120 mg/kg/day, the NEL (rat [16]; systemic / in life observation / food consumption / food consumption + systemic / pathology gross / intestine large / dilatation) was 30 mg/kg/day and the LOAEL (rat [16]; [41]) was > 750 mg/kg/day. For the same compound, the NOAEL (rat [16]; [41]) was ≥ 750 mg/kg/day, the LEL (primate [17]) was 30 mg/kg/day and the LOAEL (primate [17]) was > 30 mg/kg/day. For the same compound, the NEL (primate [17]) was < 30 mg/kg/day and the NOAEL (primate [17]) was ≥ 30 mg/kg/day.

For `CCN(CC)C(=O)c1cc(S(=O)(=O)Cc2ccccc2)c(N2CCC(c3ccccc3)CC2)cc1N(CC)CCN(C)C` [HMR1171], the LOAEL (rabbit [18]; [42]) was > 240 mg/kg/day, the NEL (rabbit [18]; [42]) was 60 mg/kg/day and the NOAEL (rabbit [18]; [42]) was ≥ 240 mg/kg/day. It also gave an LEL (rabbit [18]; [40]) of 120 mg/kg/day, an LEL (rat [19]; [43]) of 60 mg/kg/day and an LOAEL (rat [19]; [43]) of 60 mg/kg/day. The NEL (rat [19]; [43]) was 10 mg/kg/day, the NOAEL (rat [19]; [43]) was 10 mg/kg/day and the LEL (rat [19]; [44]) was 60 mg/kg/day. For the same compound, the LOAEL (rat [19]; [44]) was 60 mg/kg/day, the NEL (rat [19]; [44]) was 10 mg/kg/day and the NOAEL (rat [19]; [44]) was 10 mg/kg/day. The NEL (rat [20]; systemic / clinical chemistry / alkaline phosphatase (alp/alk) / alkaline phosphatase (alp/alk) + systemic / clinical chemistry / …) was 5 mg/kg/day, the LEL (rat [20]; [45]) was 20 mg/kg/day and the LOAEL (rat [20]; [45]) was 20 mg/kg/day. The NOAEL (rat [20]; [45]) was 5 mg/kg/day.
